According to US20250320233A1, “ARGINASE INHIBITOR AND PHARMACEUTICAL COMPOSITION COMPRISING THE SAME” (Daewoong Pharmaceutical Co., Ltd., priority 2022, published 2025):
Where a name gives a salt, the structure may show the parent alone.

Target: Arginase-1 (Homo sapiens (Human), UniProt P05089)
Assay: Arginase inhibitory activity test
Type: biochemical
Conditions: Arginase-1, L-arginine substrate, absorbance at 450 nm
Experimental: An arginase inhibitory activity test was conducted for the compound according to the present disclosure.
Specifically, all reagents required for evaluation were diluted in a reaction buffer (8 mM NAHPO4, 2 mM KH2PO4, pH 7.5, 137 mM NaCl, 2.7 mM KCl, and 0.05% Tween-20), and the compound was dissolved in DMSO and then diluted, and then diluted in the reaction buffer to conform to the desired concentration. 10 μL of the compound and 10 μL of 30 nM Arginase-1 were mixed in a transparent 96-well plate (SPL), and incubated at room temperature for 1 hour or more. After that, 10 μL of 15 mM L-arginine and 3 mM MnCl2 were added to the plate, and then reacted at room temperature for 30 minutes or more. Finally, 30 μL of a 1:1 mixture of reagent A (10 mM o-phthaldialdehyde, 0.4% polyoxyethylene lauryl ether, and 1.8M sulfuric acid in DW) and reagent B (1.3 mM primaquine diphosphate, 0.4% polyoxyethylene lauryl ether, and 3.6 M sulfuric acid in DW) was added to complete the enzyme reaction, and incubated at room temperature for 1 hour or more. The plate after incubation was measured for absorbance at 450 nm using a Flexstation3 multi-mode microplate reader (Molecular Devices).
The background control (BC) reading value was subtracted from all reading values to obtain the ΔOD for each reading value. The ΔOD of the enzyme control (EC) was set to the maximum value, and the % relative Arginase-1 activity of each compound (S) was calculated using the following Equation, and the IC50 value of the compound was determined using PRISM (GraphPad software).

Arginase-1, sequence (P05089 whole entry, species assumed): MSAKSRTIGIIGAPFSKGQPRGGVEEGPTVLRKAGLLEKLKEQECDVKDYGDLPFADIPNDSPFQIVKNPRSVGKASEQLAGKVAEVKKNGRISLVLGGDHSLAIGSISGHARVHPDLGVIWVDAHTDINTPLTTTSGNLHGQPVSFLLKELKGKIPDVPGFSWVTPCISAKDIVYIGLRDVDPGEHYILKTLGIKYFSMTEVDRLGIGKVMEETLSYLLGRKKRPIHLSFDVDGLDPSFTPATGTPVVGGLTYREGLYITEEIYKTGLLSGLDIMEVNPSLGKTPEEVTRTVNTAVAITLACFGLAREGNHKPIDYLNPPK

Row | IC50 [nM] | SMILES
1 | 100 to 1000 | CNCCN1CC[C@H]2[C@@H]1CN[C@@]2(CCCCB(O)O)C(=O)O [Example 28, (3aS,4R,6aR)-4-(4-boronobutyl)-1-(2-(methylamino)ethyl)octahydropyrrolo[2,3-c]pyrrole-4-carboxylic acid hydrochloride]
2 | > 1000 | C[C@@H](N)C(=O)N1CC[C@H]2[C@@H]1CN[C@@]2(CCCCB(O)O)C(=O)O [Example 9, (3aS,4R,6aR)-1-((R)-2-aminopropanoyl)-4-(4-boronobutyl)octahydropyrrolo[3,4-b]pyrrole-4-carboxylic acid dihydrochloride]
3 | 100 to 1000 | C[C@H](O)[C@@H](N)C(=O)N1CC[C@H]2[C@@H]1CN[C@@]2(CCCCB(O)O)C(=O)O [Example 5, (3aS,4R,6aR)-1-((2R,3S)-2-amino-3-hydroxybutanoyl)-4-(4-boronobutyl)octahydropyrrolo[3,4-b]pyrrole-4-carboxylic acid dihydrochloride]
4 | > 1000 | CC(C)[C@H](N)C(=O)N1CC[C@H]2[C@@H]1CN[C@@]2(CCCCB(O)O)C(=O)O [Example 6, (3aS,4R,6aR)-1-((S)-2-amino-3-methylbutanoyl)-4-(4-boronobutyl)octahydropyrrolo[3,4-b]pyrrole-4-carboxylic acid dihydrochloride]
5 | 100 to 1000 | N[C@@H](Cc1ccccc1)C(=O)N1CC[C@H]2[C@@H]1CN[C@@]2(CCCCB(O)O)C(=O)O [Example 3, (3aS,4R,6aR)-1-((S)-2-amino-3-phenylpropanoyl)-4-(4-boronobutyl)octahydropyrrolo[3,4-b]pyrrole-4-carboxylic acid dihydrochloride]
6 | 100 to 1000 | O=C([C@@H]1CCCN1)N1CC[C@H]2[C@@H]1CN[C@@]2(CCCCB(O)O)C(=O)O [Example 4, (3aS,4R,6aR)-4-(4-boronobutyl)-1-((S)-pyrrolidine-2-carbonyl)octahydropyrrolo[3,4-b]pyrrole-4-carboxylic acid dihydrochloride]
7 | 100 to 1000 | C[C@H](N)C(=O)N1CC[C@H]2[C@@H]1CN[C@@]2(CCCCB(O)O)C(=O)O [Example 2, (3aS,4R,6aR)-1-((S)-2-aminopropanoyl)-4-(4-boronobutyl)octahydropyrrolo[3,4-b]pyrrole-4-carboxylic acid dihydrochloride]
8 | < 100 | CN1CC[C@H]2[C@@H]1CN[C@@]2(CCCCB(O)O)C(=O)O [Example 27, (3aS,4R,6aR)-4-(4-boronobutyl)-1-methyloctahydropyrrolo[3,4-b]pyrrole-4-carboxylic acid hydrochloride]
9 | > 1000 | CC(C)C[C@H](N)C(=O)N1CC[C@H]2[C@@H]1CN[C@@]2(CCCCB(O)O)C(=O)O [Example 7, (3aS,4R,6aR)-1-((S)-2-amino-4-methylpentanoyl)-4-(4-boronobutyl)octahydropyrrolo[3,4-b]pyrrole-4-carboxylic acid dihydrochloride]

Row | SMILES | IC50 [nM]
10 | O=C(O)[C@]1(CCCCB(O)O)NC[C@@H]2NCC[C@@H]21 [Example 1, (3aS,4R,6aR)-4-(4-boronobutyl)octahydropyrrolo[3,4-b]pyrrole-4-carboxylic acid dihydrochloride] | < 100

System: Primary Peripheral Blood Mononuclear Cells (PBMC)
Assay: PBMC activity evaluation test (T cell proliferation suppressed by synthetic arginase 1, CellTiter-Glo)
Type: cell-based
Conditions: PBMC with α-CD3/α-CD28 antibodies and synthetic arginase 1, 72 hours, CellTiter-Glo luminescence; read-out: EC50
Experimental: A Primary Peripheral Blood Mononuclear Cells (PBMC) activity test was performed for the compound according to the present disclosure. […] To evaluate the proliferation of T cells, the CellTiter-Glo® Luminescent Cell Viability (Promega, Catalog #G7571) evaluation method was used, which can confirm the proliferation of cells by quantifying the ATP present in the cells. In addition to the compound according to the present disclosure, the compound CB-1158 (Numidargistat) was also tested together for comparison.
Specifically, α-CD3 antibody was coated on a clear 96-well microplate. 1×10^5 PBMC cells were placed in each well. RPMI media (10% FBS, 1% penicillin/streptomycin) was used as the cell culture medium. α-CD28 antibody and synthetic arginase 1 were added to each well. The compounds prepared in Examples were treated at different concentrations (2, 1, 0.5, 0.25, 0.125, 0.0625, 0.03125 μM). After incubating for 72 hours, 50 μL of cells from each well were transferred to a white 96-well microplate, and mixed with 50 μL of CellTiter-Glo® solution.
After performing the reaction at room temperature for 10 minutes in the state where light was blocked, the luminescence was measured. The measurement results for each compound were calculated using Excel, and the EC50 value was calculated using GraphPad Prism software.

Row | SMILES | EC50 [nM]
11 | O=C(O)[C@]1(CCCCB(O)O)NC[C@@H]2NCC[C@@H]21 [Example 1, (3aS,4R,6aR)-4-(4-boronobutyl)octahydropyrrolo[3,4-b]pyrrole-4-carboxylic acid dihydrochloride] | < 100

Same assay, conditions: PBMC, 72 h

Row | SMILES | EC50 [nM]
12 | C[C@H](N)C(=O)N1C[C@H](CCCB(O)O)[C@](N)(C(=O)O)C1 [CB-1158 (Numidargistat), Numidargistat, reference compound] | 100 to 500
